Laboratory results taken from patent US20130197089A1, “COMPOSITIONS FOR THE TREATMENT OF ACTINIC KERATOSIS” (DOLORGIET GMBH & CO. KG, priority 2012, published 2013).

Experiments:
[1] = system: actinic keratosis lesions; assay: Second study: 10% ibuprofen gel vs 3% diclofenac gel in patients with actinic keratosis; settings: for Average number of lesions at the start of the study: baseline; for Average IGII at the end of the treatment time: all areas; for Average IGII at the end of the treatment time / Investigator global improvement index (IGII): scale -2 to +4
Method: (§1) The application frequency was twice a day. The success of the treatment was evaluated after 30, 60 and 90 days.
(§2) When included in the study, the severity of the lesions was evaluated according to the so-called BSI (baseline severity index) score from 0 to 3. Patients having a BSI score of 1 and 2 were exclusively included in the study.
(§3) The main target parameters within the scope of effectiveness were the total number of lesions in the treatment area and the IGII (investigator global improvement index) score from −2 to +4. From round 1, the evaluations were always done in comparison with the preliminary round.
(§4) IGII (investigator global improvement index) • −2 significant worsening • −1 slight worsening • 0 unchanged • 1 slight improvement • 2 improvement • 3 significant improvement • 4 complete healing
The design of the study was the same as that of the first study.

[2] = system: actinic keratosis lesions; assay: Preliminary study: 5% ibuprofen gel vs 3% diclofenac gel in patients with actinic keratosis; settings: for Development of new lesions during treatment: 90 days of treatment; for Average number of lesions at the start of the study: baseline; for Average number of lesions (total): all areas; for Severity of the lesions (BSI score): during the 90 days of treatment; for Investigator global improvement index (IGII): scale -2 to +4
Method: The study was performed according to the relevant criteria and was approved by the ethics commission of the dermatological society of Slovakia.
as §1, §2
BSI score (baseline severity index score 1-3) • 0=no actinic keratosis (AK) visible • 1=clearly visible lesion • 2=many small, moderately thick lesions or a few large scaly lesions visible • 3=many thick hypertrophic lesions that are clearly visible and palpable with clear bounds.
as §3, §4
The IGII was measured between each two rounds.

[3] = cited from earlier work
[4] = Face, 90 days, 10% ibuprofen gel or 3% diclofenac gel
[5] = Face, 10% ibuprofen gel or 3% diclofenac gel
[6] = Forehead, 90 days, 10% ibuprofen gel or 3% diclofenac gel
[7] = Forehead, 10% ibuprofen gel or 3% diclofenac gel, 6 patients per group
[8] = Hands, 90 days, 10% ibuprofen gel or 3% diclofenac gel
[9] = Hands, 10% ibuprofen gel or 3% diclofenac gel
[10] = 90 days, 10% ibuprofen gel or 3% diclofenac gel
[11] = beginning of the treatment, 10% ibuprofen gel or 3% diclofenac gel
[12] = end of the 90 days of treatment, 10% ibuprofen gel or 3% diclofenac gel
[13] = 5% ibuprofen gel or 3% diclofenac gel
[14] = Face, 90 days, 5% ibuprofen gel or 3% diclofenac gel twice a day
[15] = Face, 5% ibuprofen gel or 3% diclofenac gel
[16] = Forehead, 90 days, 5% ibuprofen gel or 3% diclofenac gel twice a day
[17] = Forehead, 5% ibuprofen gel or 3% diclofenac gel twice a day, 12 patients per group
[18] = Hands, 90 days, 5% ibuprofen gel or 3% diclofenac gel twice a day
[19] = Hands, 5% ibuprofen gel or 3% diclofenac gel
[20] = Scalp, 90 days, 5% ibuprofen gel or 3% diclofenac gel twice a day
[21] = Scalp, 5% ibuprofen gel or 3% diclofenac gel
[22] = after 90 days of treatment, 5% ibuprofen gel or 3% diclofenac gel twice a day
[23] = start of study, 5% ibuprofen gel or 3% diclofenac gel
[24] = Forehead, V0 (start of the study)

SMILES: O=C(O)Cc1ccccc1Nc1c(Cl)cccc1Cl [Diclofenac, diclofenac]
- Tolerability ([1]; 10% ibuprofen gel or 3% diclofenac gel, 90 days topical): very good
- Average number of lesions after 90 days of treatment [1, 4]: 6.2
- Average number of lesions at the start of the study [1, 5]: 12.3
- Average number of lesions after 90 days of treatment [1, 6]: 4.2
- Average number of lesions at the start of the study [1, 7]: 7.5
- Average number of lesions after 90 days of treatment [1, 8]: 8.8
- Average number of lesions at the start of the study [1, 9]: 17
- Average IGII at the end of the treatment time [1, 10]: 2.29
- Total number of lesions [1, 11]: 36.8
- Total number of lesions [1, 12]: 19.2
- Development of new lesions during treatment [2, 13]: None of the patients developed new lesions
- Average number of lesions after 90 days of treatment [2, 14]: 5.5
- Average number of lesions at the start of the study [2, 15]: 7
- Average number of lesions after 90 days of treatment [2, 16]: 5.3
- Average number of lesions at the start of the study [2, 17]: 7.1
- Average number of lesions after 90 days of treatment [2, 18]: 17.1
- Average number of lesions at the start of the study [2, 19]: 18.1
- Average number of lesions after 90 days of treatment [2, 20]: 11.5
- Average number of lesions at the start of the study [2, 21]: 15.8
- Average number of lesions (total) [2, 22]: 39.4
- Average number of lesions (total) [2, 23]: 48
- Severity of the lesions (BSI score) [2, 13]: remained virtually unchanged
- Undesirable side effects ([2]; during the study, topical 5% ibuprofen gel or 3% diclofenac gel twice a day, 90 days): No undesirable side effects
- Tolerability of the therapy ([2]; topical 5% ibuprofen gel or 3% diclofenac gel twice a day, 90 days): well tolerated

SMILES: CC(C)Cc1ccc(C(C)C(=O)O)cc1 (stereo not drawn) [Ibuprofen, ibuprofen]
- Plasma level necessary for a general systemic effect ([3]; systemic effect): ≥ 10000 ng/mL
- Plasma level reached in topical application ([3]; topical application): about 2 μg/ml
- Therapeutic result in treating slight and moderate keratosis lesions (in words) ([1]; 10% ibuprofen gel or 3% diclofenac gel, 90 days): pronounced effectiveness
- Average number of lesions after 90 days of treatment [1, 4]: 0.7
- Investigator global improvement index (IGII) ([1]; Face, V0 (start of the study)): 0
- Investigator global improvement index (IGII) ([1]; Face, V3 (after 90 days of treatment), 10% ibuprofen gel or 3% diclofenac gel): 3.7
- Average number of lesions at the start of the study [1, 5]: 5.2
- Average number of lesions after 90 days of treatment [1, 6]: 0.3
- Investigator global improvement index (IGII) [1, 24]: 0
- Investigator global improvement index (IGII) ([1]; Forehead, V3 (after 90 days of treatment), 10% ibuprofen gel or 3% diclofenac gel): 3.8
- Average number of lesions at the start of the study [1, 7]: 3.3
- Investigator global improvement index (IGII) ([1]; Hand, V0 (start of the study)): 0
- Investigator global improvement index (IGII) ([1]; Hand, V3 (after 90 days of treatment), 10% ibuprofen gel or 3% diclofenac gel): 3.6
- Average number of lesions after 90 days of treatment [1, 8]: 2.7
- Average number of lesions at the start of the study [1, 9]: 9.5
- Average IGII at the end of the treatment time [1, 10]: 3.7
- Total number of lesions [1, 11]: 18
- Total number of lesions [1, 12]: 3.7
- Patients completely freed from the optically visible lesions ([1]; end of the 90 days of treatment, 10% ibuprofen gel, six patients in group): three
- Tolerability ([1]; human, in vivo): very good
- Development of new lesions during treatment [2, 13]: None of the patients developed new lesions
- Average number of lesions after 90 days of treatment [2, 14]: 4.8
- Investigator global improvement index (IGII) ([2]; Face, V0 (start of the study)): 0
- Investigator global improvement index (IGII) ([2]; Face, V3 (after 90 days of treatment), 5% ibuprofen gel or 3% diclofenac gel): 1.38
- Average number of lesions at the start of the study [2, 15]: 5.7
- Average number of lesions after 90 days of treatment [2, 16]: 4
- Investigator global improvement index (IGII) [2, 24]: 0
- Investigator global improvement index (IGII) ([2]; Forehead, V3 (after 90 days of treatment), 5% ibuprofen gel or 3% diclofenac gel): 1.33
- Average number of lesions at the start of the study [2, 17]: 4.6
- Investigator global improvement index (IGII) ([2]; Hand, V0 (start of the study)): 0
- Investigator global improvement index (IGII) ([2]; Hand, V3 (after 90 days of treatment), 5% ibuprofen gel or 3% diclofenac gel): 1
- Average number of lesions after 90 days of treatment [2, 18]: 16.9
- Average number of lesions at the start of the study [2, 19]: 18.5
- Average number of lesions after 90 days of treatment [2, 20]: 6
- Investigator global improvement index (IGII) ([2]; Scalp, V0 (start of the study)): 0
- Investigator global improvement index (IGII) ([2]; Scalp, V3 (after 90 days of treatment), 5% ibuprofen gel or 3% diclofenac gel): 1
- Average number of lesions at the start of the study [2, 21]: 6.3
- Average number of lesions (total) [2, 22]: 31.7
- Average number of lesions (total) [2, 23]: 35.1
- Severity of the lesions (BSI score) [2, 13]: remained virtually unchanged
- Tolerability of the therapy ([2]; human, in vivo): well tolerated
- Undesirable side effects ([2]; human, in vivo): No undesirable side effects
